Data as given in ChEMBL document CHEMBL1201862, “PubChem BioAssay data set” (2004).
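Briefly, cells in 96-well plates were exposed to five compound concentrations for 48 h, and endpoints were estimated by linear interpolation. Abbreviation: GI50, concentration required for 50% inhibition of growth.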 Calls of active or inactive are those of the source. Rule as the data show it: active = GI50 up to about 1.1 µM and inactive = higher.

Key:
Assay in all cases: inhibition of tumour cell growth, NCI panel, 48 h
HT-29 = system: HT-29
EKVX = system: EKVX
LOX IMVI = system: LOX IMVI
NCI-H23 = system: NCI-H23
OVCAR-4 = system: OVCAR-4
HL-60 = system: HL-60
NCI-H522 = system: NCI-H522
SR = system: SR
KM12 = system: KM12
SNB-75 = system: SNB-75
RPMI-8226 = system: RPMI-8226
UACC-257 = system: UACC-257
A549 = system: A549
HOP-92 = system: HOP-92
SK-MEL-28 = system: SK-MEL-28
SK-OV-3 = system: SK-OV-3
OVCAR-3 = system: OVCAR-3

Measured: GI50

CCOC(=O)/C=C/c1ccccn1
inactive: HT-29 > 100 µM | EKVX > 100 µM | LOX IMVI > 100 µM | NCI-H23 > 100 µM | OVCAR-4 > 100 µM | HL-60 > 100 µM | NCI-H522 > 100 µM | SR > 100 µM | KM12 > 100 µM | SNB-75 > 100 µM | RPMI-8226 > 100 µM | UACC-257 > 100 µM | A549 > 100 µM | HOP-92 > 100 µM | SK-MEL-28 > 100 µM | SK-OV-3 > 100 µM

CCOC1C(Br)Cn2c(=O)c3cc4ccccc4cc3c(=O)n2C1C (configuration not stated)
inactive: HT-29 27.5 µM | EKVX 47.6 µM | LOX IMVI 73.5 µM | NCI-H23 > 100 µM | OVCAR-3 > 100 µM | OVCAR-4 > 100 µM | HL-60 44.9 µM | NCI-H522 1.67 µM | SR 34 µM | KM12 > 100 µM | SNB-75 39.4 µM | RPMI-8226 33.8 µM | UACC-257 60.4 µM | A549 67.3 µM | HOP-92 97.7 µM | SK-MEL-28 > 100 µM | SK-OV-3 > 100 µM

COc1cccc(C=O)c1[O-].COc1cccc(C=O)c1[O-].[Zn+2]
inactive: HT-29 97.7 µM | EKVX 61.5 µM | LOX IMVI 76.9 µM | NCI-H23 79.3 µM | OVCAR-3 32.8 µM | OVCAR-4 57.5 µM | NCI-H522 > 100 µM | SR 35.6 µM | KM12 > 100 µM | SNB-75 42 µM | RPMI-8226 49.1 µM | UACC-257 33.9 µM | A549 > 100 µM | HOP-92 21.9 µM | SK-MEL-28 76.7 µM | SK-OV-3 36.6 µM

COc1ccc2c(c1)CCc1cnn(C3OC(COC(C)=O)C(OC(C)=O)C(OC(C)=O)C3OC(C)=O)c1-2 (configuration not stated)
inactive: HT-29 37.2 µM | EKVX 49 µM | LOX IMVI > 100 µM | NCI-H23 69 µM | OVCAR-3 23.9 µM | HL-60 > 100 µM | NCI-H522 17 µM | SR 26.1 µM | KM12 > 100 µM | SNB-75 36.6 µM | RPMI-8226 16.7 µM | UACC-257 > 100 µM | A549 > 100 µM | HOP-92 27.3 µM | SK-MEL-28 41.1 µM

Clc1ccc(C2=NOC(C3CCCCC3)C2)cc1 (configuration not stated)
inactive: HT-29 > 100 µM | NCI-H23 > 100 µM | OVCAR-3 > 100 µM | OVCAR-4 > 100 µM | HL-60 > 100 µM | NCI-H522 > 100 µM | SR > 100 µM | KM12 > 100 µM | SNB-75 > 100 µM | RPMI-8226 > 100 µM | UACC-257 > 100 µM | A549 > 100 µM | HOP-92 > 100 µM | SK-MEL-28 > 100 µM | SK-OV-3 > 100 µM

O=c1cc(-c2ccccc2)[nH]c2c(F)ccc(F)c12
inactive: HT-29 33.5 µM | LOX IMVI 49.3 µM | NCI-H23 > 100 µM | OVCAR-4 > 100 µM | HL-60 31.8 µM | NCI-H522 27.7 µM | SR 13.3 µM | KM12 18.5 µM | SNB-75 15 µM | RPMI-8226 31.1 µM | UACC-257 > 100 µM | A549 37.9 µM | HOP-92 > 100 µM | SK-MEL-28 59.8 µM | SK-OV-3 > 100 µM

CCOC(=O)C(C[Si](C)(C)C)P(=O)(OCC)OCC (configuration not stated)
inactive: HT-29 > 100 µM | LOX IMVI > 100 µM | NCI-H23 > 100 µM | OVCAR-3 > 100 µM | OVCAR-4 > 100 µM | HL-60 > 100 µM | NCI-H522 > 100 µM | SR > 100 µM | KM12 > 100 µM | SNB-75 38.5 µM | RPMI-8226 > 100 µM | UACC-257 > 100 µM | A549 > 100 µM | HOP-92 > 100 µM | SK-MEL-28 > 100 µM | SK-OV-3 > 100 µM

COc1cc2cc3c4c(cc(OC)c(OC)c4c2cc1OC)CCN3C(=O)OCCN1CCNCC1
inactive: HT-29 12.6 µM | EKVX 15.1 µM | LOX IMVI 13.7 µM | NCI-H23 17.4 µM | OVCAR-3 15.3 µM | OVCAR-4 17.5 µM | HL-60 13.2 µM | NCI-H522 16.6 µM | SR 11.2 µM | KM12 15.1 µM | SNB-75 11.9 µM | RPMI-8226 14.1 µM | UACC-257 14.9 µM | A549 18.5 µM | HOP-92 12.9 µM | SK-MEL-28 18.5 µM | SK-OV-3 17.9 µM

O=C1NC(O)n2c(=O)[nH]c(=O)n21 (configuration not stated)
inactive: HT-29 > 100 µM | EKVX > 100 µM | LOX IMVI > 100 µM | NCI-H23 > 100 µM | OVCAR-3 > 100 µM | OVCAR-4 > 100 µM | HL-60 71 µM | NCI-H522 > 100 µM | SR > 100 µM | KM12 > 100 µM | SNB-75 > 100 µM | RPMI-8226 > 100 µM | UACC-257 > 100 µM | A549 > 100 µM | HOP-92 > 100 µM | SK-MEL-28 > 100 µM | SK-OV-3 > 100 µM

NC1=NNC(=O)c2nnc3c(C(=O)O)cnn3c2S1
inactive: HT-29 > 100 µM | EKVX > 100 µM | NCI-H23 > 100 µM | OVCAR-3 > 100 µM | OVCAR-4 > 100 µM | HL-60 > 100 µM | NCI-H522 > 100 µM | SR > 100 µM | KM12 > 100 µM | SNB-75 47.4 µM | RPMI-8226 > 100 µM | A549 > 100 µM | HOP-92 > 100 µM | SK-MEL-28 > 100 µM | SK-OV-3 > 100 µM

O=C1CC(S(=O)(=O)O)C=C1Nc1cccc(Cl)c1 (configuration not stated)
inactive: HT-29 > 100 µM | EKVX > 100 µM | LOX IMVI > 100 µM | NCI-H23 > 100 µM | OVCAR-3 > 100 µM | OVCAR-4 > 100 µM | HL-60 > 100 µM | NCI-H522 > 100 µM | SR > 100 µM | KM12 > 100 µM | SNB-75 > 100 µM | UACC-257 > 100 µM | A549 > 100 µM | HOP-92 > 100 µM | SK-MEL-28 > 100 µM | SK-OV-3 > 100 µM

CC(N)Cc1ccc(Cl)c(Cl)c1 (configuration not stated)
inactive: HT-29 24.3 µM | EKVX 41.5 µM | LOX IMVI 27.2 µM | NCI-H23 > 95.1 µM | OVCAR-3 69.3 µM | OVCAR-4 67.8 µM | HL-60 18.6 µM | NCI-H522 29.6 µM | SR 20.5 µM | KM12 10.6 µM | SNB-75 23.3 µM | RPMI-8226 34.8 µM | UACC-257 22.9 µM | A549 > 100 µM | HOP-92 22.6 µM | SK-MEL-28 20.4 µM | SK-OV-3 74.8 µM
